Data on 7 compounds can be found in patent US8877775B2, “Substituted 2-aza-bicyclo[2.2.2]octane-3-carboxylic acid (benzyl-cyano-methyl)-amides inhibitors of cathepsin C” (Boehringer Ingelheim International GmbH, priority 2013, dated 2014).

Bounds are passed on as bounds.

Series [1] deals with Neutrophil elastase activity in U937 cells. Put plainly: Neutrophil elastase activity in U937 cytosolic lysate after incubation with test compound. Type of series: cell-based. Conditions: Homo sapiens, U-937; U937 cells incubated 48 hours with compound; NE activity in lysate; read-out: Reduction of NE-activity in U937 cells IC50. Here is the method: Determination of Neutrophil Elastase Activity in U937 Cytosolic Lysate Preparation after Incubation with Test Compound Materials: Optiplate 384F were purchased from PerkinElmer (Prod. No. #6007270). 24 well Nunclon cell culture plates (No. 142475) and 96 well plates (No. 267245) were from Nunc. Dimethylsulfoxid (DMSO) was from Sigma (Prod. No. D8418). Nonidet-P40 (NP40) was from USBiological (Prod. No. N3500) Substrate, specific for Neutrophil elastase, was from Bachem (MeOSuc-Ala-Ala-Pro-Val-AMC; Prod. No. I-1270). Human neutrophil elastase was from Calbiochem (Prod. No. 324681) Buffers: Tris-buffer (100 mM Tris; 1M NaCL; pH 7.5) Tris-buffer+HSA 0.1%; Human Serum Albumin from Calbiochem (Cat#. 126658) Serine-protease buffer (20 mM Tris; 100 mM NaCL; pH 7.5)+0.1% HSA Serine protease lysis buffer: 20 mM Tris-HCL; 100 mM NaCl pH 7.5; +0.2% Nonidet-P40; PBS: phosphate buffered saline, without Ca and Mg, from Gibco Cell Culture: U937 from ECACC (Cat. No. 85011440) cultured in suspension at 37° C. and 5% CO2. Cell density: 0.2-1 Mio. Cells/ml. Medium: RPMI1640 GlutaMAX (No. 61870) with 10% FCS from Gibco Cell Seeding and Treatment: Compounds in 100% DMSO were diluted in Medium (—FCS) with 10% DMSO and further diluted according to the experiment planned. 20 μl of the compound solution was transferred in the respective wells of the 24 well plate and diluted with 2 ml cell suspension/well containing 1′10^5 cells/ml (final concentration of DMSO=0.1%). Compound dilution factor=100 Compounds (up to 7 concentrations) were tested in triplicates with 3 wells for the DMSO 0.1% control, incubated for 48 hours without medium change at 37° C., 5% CO2 and 95% relative to humidity. Cell Harvesting and Cell Lysate:
Transfer the cell suspension in 2.2 ml Eppendorf cups. Separate cells from medium by centrifugation (400×g; 5 min; RT); discard the supernatant. Resuspend in 1 ml PBS; centrifugation (400×g; 5 min; RT); wash cells twice with PBS. Add 100 μl Serin lysis buffer (ice cold) to the cell pellet; resuspend the pellet and store on ice for 15 minutes. Remove debris by centrifugation at 15000×g for 10 min at 4° C. Transfer 80-100 μl lysate supernatant in 96 well plate and store immediately at −80° C.
Neutrophil Elastase Activity Assay:
Frozen lysates were thawn at 37° C. for 10 minutes and stored on ice. Protein content was determined with Bradford protein assay. Lysates were diluted to 0.2-0.5 mg/ml protein in serine protease buffer+HSA.
Standard: NE (100 μg/ml stocksolution in Tris-buffer; stored at −80° C.) was diluted in Tris-buffer+HSA to 750 ng/ml, and further serially diluted 1:2 for the standard curve.
Buffer, blank, standard and lysate samples were transferred into 384 well plate
The increase in fluorescence (Ex360 nm/Em 460 nm) is determined over 30 minutes with a Molecular Device Spectramax M5 Fluorescence Reader. Kinetic Reduction (Vmax units/sec); 4 vmax points. The amount of neutrophil elastase (ng/ml) is calculated using the standard curve and the Spectramax software. The result is interpolated to ng/mg lysate protein using excel formula functions. […] IC50 is calculated using Graphpad Prism; nonlinear fitting (log(inhibitor) vs. response—Variable slope). The IC50 value is interpolated as the concentration of test compound which leads to a neutrophil elastase activity reduction of 50% (relative to the DMSO-treated control).

The nature of series [2]: Metabolic stability with human liver microsomes. Type of series: in vitro ADME. Conditions: pH 7.6; pooled human liver microsomes, 37° C., 1 μM test compound, 1 mg/ml protein, NADPH; read-out: In vitro stability in human liver microsome incubations t1/2. Here is the method: Determination of Metabolic Stability with Human Liver Microsomes
The metabolic degradation of the test compound is assayed at 37° C. with pooled human liver microsomes. The final incubation volume of 100 μl per time point contains TRIS buffer pH 7.6 (0.1 M), magnesium chloride (5 mM), microsomal protein (1 mg/ml) and the test compound at a final concentration of 1 μM. Following a short preincubation period at 37° C., the reactions are initiated by addition of beta-nicotinamide adenine dinucleotide phosphate, reduced form (NADPH, 1 mM) and terminated by transfering an aliquot into acetonitrile after different time points. Additionally, the NADPH-independent degradation is monitored in incubations without NADPH, terminated at the last time point. The [%] remaining test compound after NADPH independent incubation is reflected by the parameter c(control) (metabolic stability). The quenched incubations are pelleted by centrifugation (10′000 g, 5 min). An aliquot of the supernatant is assayed by LC-MS/MS for the amount of parent compound.
The half-life (t1/2 INVITRO) is determined by the slope of the semilogarithmic plot of the concentration-time profile. The intrinsic clearance (CL_[…]) is calculated by considering the amount of protein in the incubation: CL_[…][μl/min/mg protein]=(In 2/(half-life[min]*protein content[mg/ml]))*1′000. The half-life (t1/2 INVITRO) values of selected compounds in the metabolic stability assay described above are listed in the following table

With `CN1C(=O)Cc2ccc(-c3ccc(C[C@@H](C#N)NC(=O)[C@H]4N[C@H]5CC[C@@H]4CC5)cc3)cc21` [Example 4], the 50% inhibitory concentration (IC50) in series [1] was 50 nM. For the same compound, the half-life at 1 μM in series [2] amounted to 1.47 h.

As to `N#C[C@H](Cc1ccc(-c2ccc3c(c2)CNC3=O)cc1)NC(=O)[C@H]1NC2CCC1CC2` [Example 11], the IC50 in series [1] came to 328 nM. Further, the half-life at 1 μM in series [2] was > 2.17 h.

Take `CS(=O)(=O)c1cccc(-c2ccc(C[C@@H](C#N)NC(=O)[C@H]3NC4CCC3CC4)cc2)c1` [Example 10]: the IC50 in series [1] was found to be 426 nM. Besides, the half-life at 1 μM in series [2] was > 2.17 h.

Regarding `CS(=O)(=O)c1cc(-c2ccc(C[C@@H](C#N)NC(=O)[C@H]3NC4CCC3CC4)cc2)ccc1C#N` [Example 8], the IC50 in series [1] is 469 nM. Also, in series [2], the half-life at 1 μM is > 2.17 h.

For the compound `N#C[C@H](Cc1ccc(-c2ccc3c(c2)NC(=O)C3)cc1)NC(=O)[C@H]1NC2CCC1CC2` [Example 2, (2S)—N-[(1S)-cyano-2-[4-(2-oxoindolin-6-yl)phenyl]ethyl]-3-azabicyclo[2.2.2]octane-2-carboxamide], the half-maximal inhibitory concentration (IC50) in series [1] was 281 nM. For the same compound, in series [2], the half-life at 1 μM is 2 h.

`N#Cc1ccc(-c2ccc(C[C@@H](C#N)NC(=O)[C@H]3N[C@H]4CC[C@@H]3CC4)cc2)cc1F` [Example 7, (2S)—N-[(1S)-1-cyano-2-[4-(4-cyano-3-fluoro-phenyl)phenyl]ethyl]-3-azabicyclo[2.2.2]octane-2-carboxamide]: the IC50 in series [1] was found to be 561 nM. In addition, the half-life at 1 μM in series [2] was > 2.17 h.

In the case of `CS(=O)(=O)Nc1cccc(-c2ccc(C[C@@H](C#N)NC(=O)[C@H]3NC4CCC3CC4)cc2)c1` [Example 12], the half-inhibitory concentration (IC50) in series [1] worked out at 450 nM. Besides, the half-life at 1 μM in series [2] was 1.07 h.
